These molecules were tested against Beta-3 Adrenergic Receptor (Homo sapiens (Human), UniProt P13945) (assay: Homogeneous Time-Resolved Fluorescence (HTRF) cAMP antagonist assay, IC50 determination). Conditions: CHO-K1 cells stably expressing recombinant receptor, isoproterenol at EC90.
Beta-3 Adrenergic Receptor, sequence (P13945 whole entry, species assumed): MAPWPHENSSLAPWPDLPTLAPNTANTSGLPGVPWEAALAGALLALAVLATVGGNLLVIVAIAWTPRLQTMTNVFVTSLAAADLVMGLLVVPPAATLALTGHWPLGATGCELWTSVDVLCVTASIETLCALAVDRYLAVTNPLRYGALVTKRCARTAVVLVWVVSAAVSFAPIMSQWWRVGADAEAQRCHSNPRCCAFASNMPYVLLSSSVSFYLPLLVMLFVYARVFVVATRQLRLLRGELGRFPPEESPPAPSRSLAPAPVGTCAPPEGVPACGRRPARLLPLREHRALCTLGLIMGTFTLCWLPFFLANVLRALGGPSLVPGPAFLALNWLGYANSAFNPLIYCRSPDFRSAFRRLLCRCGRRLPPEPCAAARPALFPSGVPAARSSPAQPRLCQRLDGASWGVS
Assay type: cell-based
Method in brief: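 CHO-K1 cells stably expressing receptor, 1500 cells/well, preincubated briefly with 10-point 5-fold compound series (top final typically 10 or 100 μM) in PBS with 1 mM IBMX, then challenged with isoproterenol at EC90 for 1 h at room temperature. cAMP read by HTRF against on-plate standard curve; IC50 from dose-response.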
CNS(=O)(=O)c1cccc(OC[C@@H](O)CNC2COC3(CCN(S(=O)(=O)c4cccc(-c5cccc(COC)c5)c4)CC3)C2)c1 (stereo partly drawn) [Compound 65, 3-((2S)-2-hydroxy-3-(8-(3′-(methoxymethyl)biphenyl-3-ylsulfonyl)-1-oxa-8-azaspiro[4.5]decan-3-ylamino)propoxy)-N-methylbenzenesulfonamide] showed an IC50 of 85.6 nM.
O=S(=O)(NCCO)c1cccc(OC[C@@H](O)CNC2COC3(CCN(S(=O)(=O)c4ccc5ccccc5c4)CC3)C2)c1 (stereo partly drawn) [Compound 12, 3-((2S)-2-hydroxy-3-(8-(naphthalen-2-ylsulfonyl)-1-oxa-8-azaspiro[4.5]decan-3-ylamino)propoxy)-N-(2-hydroxyethyl)benzenesulfonamide] gave an IC50 of 31.7 nM.
In the case of CNS(=O)(=O)c1cccc(OC[C@@H](O)CN[C@H]2COC3(CCN(S(=O)(=O)c4cccc(-c5ccc(CNCC(C)C)cc5)c4)CC3)C2)c1 [Compound 363, 3-((S)-2-hydroxy-3-((R)-8-(4′-((isobutylamino)methyl)biphenyl-3-ylsulfonyl)-1-oxa-8-azaspiro[4.5]decan-3-ylamino)propoxy)-N-methylbenzenesulfonamide], the IC50 is reported as 123 nM.
CNS(=O)(=O)c1cccc(OC[C@@H](O)CNC2COC3(CCN(S(=O)(=O)c4ccc(C)c(-c5ccc(CN)cc5)c4)CC3)C2)c1 (stereo partly drawn) [Compound 376, 3-((2S)-3-(8-(4′-(aminomethyl)-6-methylbiphenyl-3-ylsulfonyl)-1-oxa-8-azaspiro[4.5]decan-3-ylamino)-2-hydroxypropoxy)-N-methylbenzenesulfonamide] gave an IC50 of 499 nM.
CCCn1cc(S(=O)(=O)N2CCC3(CC2)C[C@@H](NC[C@H](O)COc2cccc(S(=O)(=O)NC)c2)CO3)c(=O)c2ccccc21 [Compound 524, 3-((S)-2-hydroxy-3-((R)-8-(4-oxo-1-propyl-1,4-dihydroquinolin-3-ylsulfonyl)-1-oxa-8-azaspiro[4.5]decan-3-ylamino)propoxy)-N-methylbenzenesulfonamide] showed an IC50 of 87.2 nM.
CNS(=O)(=O)c1cccc(OC[C@@H](O)CNC2COC3(CCN(S(=O)(=O)c4ccc(-c5ccc(C(F)(F)F)cc5)cc4)CC3)C2)c1 (stereo partly drawn) [Compound 121, 3-((2S)-2-hydroxy-3-(8-(4′-(trifluoromethyl)biphenyl-4-ylsulfonyl)-1-oxa-8-azaspiro[4.5]decan-3-ylamino)propoxy)-N-methylbenzenesulfonamide] was tested, and the IC50 was 67 nM.
CNS(=O)(=O)c1cccc(OC[C@@H](O)CN[C@H]2COC3(CCN(S(=O)(=O)c4cnc5c(c4)N(C(C)C)CCO5)CC3)C2)c1 [Compound 469, 3-((S)-2-hydroxy-3-((R)-8-(1-isopropyl-2,3-dihydro-1H-pyrido[2,3-b][1,4]oxazin-7-ylsulfonyl)-1-oxa-8-azaspiro[4.5]decan-3-ylamino)propoxy)-N-methylbenzenesulfonamide] was tested, and the IC50 was 31.3 nM.
In the case of CCOCCNS(=O)(=O)c1cccc(OC[C@@H](O)CNC2COC3(CCN(S(=O)(=O)c4ccc5ccccc5c4)CC3)C2)c1 (stereo partly drawn) [Compound 47, N-(2-ethoxyethyl)-3-((2S)-2-hydroxy-3-(8-(naphthalen-2-ylsulfonyl)-1-oxa-8-azaspiro[4.5]decan-3-ylamino)propoxy)benzenesulfonamide], the IC50 is reported as 155 nM.
For CNS(=O)(=O)c1cccc(OC[C@@H](O)CNC2COC3(CCN(S(=O)(=O)c4cc(F)ccc4F)CC3)C2)c1 (stereo partly drawn) [Compound 205, 3-((2S)-3-(8-(2,5-difluorophenylsulfonyl)-1-oxa-8-azaspiro[4.5]decan-3-ylamino)-2-hydroxypropoxy)-N-methylbenzenesulfonamide], the IC50 was 14 nM.
CN(C)CCCNS(=O)(=O)c1cccc(OC[C@@H](O)CNC2COC3(CCN(S(=O)(=O)c4ccc(-c5ccccc5)s4)CC3)C2)c1 (stereo partly drawn) [Compound 315, N-(3-(dimethylamino)propyl)-3-((2S)-2-hydroxy-3-(8-(5-phenylthiophen-2-ylsulfonyl)-1-oxa-8-azaspiro[4.5]decan-3-ylamino)propoxy)benzenesulfonamide] showed an IC50 of 1070 nM.
Work on CONS(=O)(=O)c1cccc(OC[C@@H](O)CN[C@H]2COC3(CCN(S(=O)(=O)c4cnc5c(c4)N(C)CCO5)CC3)C2)c1 [Compound 451, 3-((S)-2-hydroxy-3-((R)-8-(1-methyl-2,3-dihydro-1H-pyrido[2,3-b][1,4]oxazin-7-ylsulfonyl)-1-oxa-8-azaspiro[4.5]decan-3-ylamino)propoxy)-N-methoxybenzenesulfonamide] yielded an IC50 of 2130 nM.
Work on CNS(=O)(=O)c1cccc(OC[C@@H](O)CN[C@H]2COC3(CCN(S(=O)(=O)c4cnc5c(c4)NCCO5)CC3)C2)c1 [Compound 444, 3-((S)-3-((R)-8-(2,3-dihydro-1H-pyrido[2,3-b][1,4]oxazin-7-ylsulfonyl)-1-oxa-8-azaspiro[4.5]decan-3-ylamino)-2-hydroxypropoxy)-N-methylbenzenesulfonamide] yielded an IC50 of 31.8 nM.
In the case of CCNS(=O)(=O)c1cccc(OC[C@@H](O)CNC2COC3(CCN(S(=O)(=O)c4ccc(OC)c(C)c4)CC3)C2)c1 (stereo partly drawn) [Compound 225, N-ethyl-3-((2S)-2-hydroxy-3-(8-(4-methoxy-3-methylphenylsulfonyl)-1-oxa-8-azaspiro[4.5]decan-3-ylamino)propoxy)benzenesulfonamide], the IC50 is reported as 186 nM.
CNS(=O)(=O)c1cccc(OC[C@@H](O)CNC2COC3(CCN(S(=O)(=O)c4ccc(C#N)cc4Cl)CC3)C2)c1 (stereo partly drawn) [Compound 157, 3-((2S)-3-(8-(2-chloro-4-cyanophenylsulfonyl)-1-oxa-8-azaspiro[4.5]decan-3-ylamino)-2-hydroxypropoxy)-N-methylbenzenesulfonamide] showed an IC50 of 26.4 nM.
With CNS(=O)(=O)c1cccc(OC[C@@H](O)CN[C@H]2COC3(CCN(S(=O)(=O)c4cnc5c(C)cccc5c4O)CC3)C2)c1 [Compound 528, 3-((S)-2-hydroxy-3-((R)-8-(4-hydroxy-8-methylquinolin-3-ylsulfonyl)-1-oxa-8-azaspiro[4.5]decan-3-ylamino)propoxy)-N-methylbenzenesulfonamide] the IC50 was 10.2 nM.
With CNS(=O)(=O)c1cccc(OC[C@@H](O)CNC2COC3(CCN(S(=O)(=O)c4cccc(-c5nn[nH]n5)c4)CC3)C2)c1 (stereo partly drawn) [Compound 409, 3-((2S)-3-(8-(3-(2H-tetrazol-5-yl)phenylsulfonyl)-1-oxa-8-azaspiro[4.5]decan-3-ylamino)-2-hydroxypropoxy)-N-methylbenzenesulfonamide] the IC50 was 180 nM.
CNS(=O)(=O)c1cccc(OC[C@@H](O)CN[C@H]2COC3(CCN(S(=O)(=O)c4cnc5[nH]ncc5c4)CC3)C2)c1 [Compound 490, 3-((S)-3-((R)-8-(1H-pyrazolo[3,4-b]pyridin-5-ylsulfonyl)-1-oxa-8-azaspiro[4.5]decan-3-ylamino)-2-hydroxypropoxy)-N-methylbenzenesulfonamide] showed an IC50 of 37.3 nM.
In the case of CNS(=O)(=O)c1cccc(OC[C@@H](O)CNC2COC3(CCN(S(=O)(=O)c4ccc(-c5ccccn5)cc4)CC3)C2)c1 (stereo partly drawn) [Compound 402, 3-((2S)-2-hydroxy-3-(8-(4-(pyridin-2-yl)phenylsulfonyl)-1-oxa-8-azaspiro[4.5]decan-3-ylamino)propoxy)-N-methylbenzenesulfonamide], the IC50 is reported as 20.4 nM.
With CNS(=O)(=O)c1cccc(OC[C@@H](O)CN[C@H]2COC3(CCN(S(=O)(=O)c4cnc5[nH]ccc5c4)CC3)C2)c1 [Compound 506, 3-((S)-3-((R)-8-(1H-pyrrolo[2,3-b]pyridin-5-ylsulfonyl)-1-oxa-8-azaspiro[4.5]decan-3-ylamino)-2-hydroxypropoxy)-N-methylbenzenesulfonamide] the IC50 was 11.9 nM.
